Laboratory results as given in patent publication US9023882B2, “5-membered nitrogen containing heterocyclic derivatives and pharmaceutical compositions comprising the same” (Kissei Pharmaceutical Co., Ltd., priority 2007, dated 2015).

How the values were obtained:
[1] = target: Xanthine oxidase (from bovine milk, Sigma) (Bos taurus (Bovine), UniProt P80457); test: Xanthine oxidase inhibitory activity; type: biochemical; details: absorbance at 290 nm
Method in brief: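 Bovine milk enzyme at 0.02 units/mL in PBS was mixed with compound (DMSO stock diluted in PBS) and 200 μM xanthine stock, reacting 10 min at room temperature. Uric acid formation was read as absorbance at 290 nm; IC50 was derived with no-xanthine wells as 0% and no-compound control as 100%.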

[2] = tested on: BBMV from human kidney cortex; test: Inhibitory activity of uric acid transport with brush-border membrane vesicles (BBMV); type: biochemical; details: test compound 100 μM; uptake of 14C-labeled uric acid into human kidney cortex BBMV
Experimental: Inhibitory activity of uric acid transport of test compounds was performed on the basis of methods described in a reference (Am. J. Physiol. 266 (Renal Fluid Electrolyte Physiol. 35): F797-F805, 1994) with a partial modification.
(1) Preparation of BBMV from Human Kidney Cortex
BBMV from human kidney cortex were purchased from KAC. Renal cortex was dissected from human kidney and cut into small pieces. Then, the cortex was homogenized in 5 volumes of ice-cold isotonic buffer (300 mM mannitol, 5 mM ethylene glycol-bis-(β-aminoethylether)-N,N,N′,N′-tetraacetic acid (EGTA), 12 mM tris(hydroxymethyl)aminomethane (Tris).HCl, pH 7.4). After adding 1 M magnesium chloride to a final concentration of 12 mM, and then the suspension was mixed and allowed to stand on ice for 15 minutes. The homogenized solution was centrifuged at 2,500×g for 15 minutes at 4° C., furthermore, the supernatant was centrifuged at 30,000×g for 30 minutes at 4° C. The pellet was resuspended in ice-cold buffer 1 (150 mM mannitol, 2.5 mM EGTA, 6 mM Tris.HCl, pH 7.4). After adding 1 M magnesium chloride to a final concentration of 12 mM, and then the suspension was mixed and allowed to stand on ice for 15 minutes. After centrifugation again at 2,500×g for 15 minutes at 4° C., furthermore, the supernatant was centrifuged at 30,000×g for 30 minutes at 4° C. The pellet was resuspended in ice-cold buffer 2 (100 mM mannitol, 100 mM potassium gluconate, 20 mM 2-[4-(2-hydroxyethyl)-1-piperazinyl]-ethanesulfonic acid (Hepes)-Tris, pH 7.4). After centrifugation at 30,000×g for 30 minutes at 4° C., the pellet was resuspended in buffer 2, and then the protein concentration was determined
(2) Preparation of Test Compounds […]
BBMV were thawed on ice. […] The uptake of uric acid into BBMV was measured by the rapid-filtration technique. […] Furthermore, filters were washed twice with 3 mL of stop solution and dissolved in 10 mL of Filter-Count (PerkinElmer), and the radioactivity was counted in a liquid scintillation counter (PerkinElmer). The radioactivity associated with the filters in the absence of BBMV was used as corrections. […]

human URAT1 = human URAT1 (Homo sapiens (Human), UniProt Q96S37); test: Inhibitory activity of uric acid transport with human URAT1 expressing cells; type: cell-based; details: COS-7; test compound 100 μM; 14C-labeled uric acid uptake in COS7 cells transiently expressing human URAT1
Sequence of human URAT1 (Q96S37 whole entry): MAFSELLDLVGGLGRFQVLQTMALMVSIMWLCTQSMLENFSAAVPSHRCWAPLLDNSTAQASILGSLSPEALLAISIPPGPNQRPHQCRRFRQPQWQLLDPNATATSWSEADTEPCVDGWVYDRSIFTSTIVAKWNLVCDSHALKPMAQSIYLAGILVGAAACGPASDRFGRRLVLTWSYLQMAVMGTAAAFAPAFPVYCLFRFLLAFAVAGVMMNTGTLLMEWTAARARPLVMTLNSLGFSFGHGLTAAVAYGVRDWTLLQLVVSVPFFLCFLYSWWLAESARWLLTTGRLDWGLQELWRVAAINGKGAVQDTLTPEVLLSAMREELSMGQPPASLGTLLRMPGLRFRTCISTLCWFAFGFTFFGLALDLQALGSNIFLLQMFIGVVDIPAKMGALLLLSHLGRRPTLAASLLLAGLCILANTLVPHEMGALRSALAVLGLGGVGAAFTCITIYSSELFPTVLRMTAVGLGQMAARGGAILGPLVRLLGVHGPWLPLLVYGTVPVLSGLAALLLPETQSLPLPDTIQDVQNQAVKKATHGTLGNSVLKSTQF
Experimental: (1) Preparation of Transiently Human URAT1 Expressing Cells
Full length human URAT1 cDNA (NCBI Accession No. NM_144585) was subcloned into expression vector, pcDNA3.1 (Invitrogen). Human URAT1 expression vector was transfected into COS7 cells (RIKEN CELL BANK RCB0539) using Lipofectamine 2000 (Invitrogen). COS7 cells were cultured in collagen-coated 24 well plates (Asahi Techno Glass) at 2×10^5/well in D-MEM culture medium (Invitrogen) containing 10% fetal bovine serum (Sanko Junyaku) for 2 hours at 37° C. under the condition of 5% CO2. For 1 well, 2 μL of Lipofectamine 2000 was diluted in 50 μL of OPTI-MEM (Invitrogen) and allowed to stand at room temperature for 7 minutes (hereinafter referred to as Lipo2000-OPTI). For 1 well, 0.8 μg of human URAT1 expression vector was diluted in 50 μL of OPTI-MEM (Invitrogen) and combined gently with Lipo2000-OPTI. After standing at room temperature for 25 minutes, the mixture was added to COS7 cells at 100 μL/well. Furthermore, COS7 cells were cultured for 2 days at 37° C. under the condition of 5% CO2 and used for measuring inhibitory activity on the uptake.
(2) Preparation of Test Compounds
Test compounds were dissolved in DMSO (Wako) at 10 mM concentration and then diluted to 2 times higher concentration than intended with pre-treatment buffer (125 mM sodium gluconate, 4.8 mM potassium gluconate, 1.2 mM potassium dihydrogen phosphate, 1.2 mM magnesium sulfate, 1.3 mM calcium gluconate, 5.6 mM glucose, 25 mM Hepes, pH 7.4). Pre-treatment buffer without test compounds was used for control. […]
All tests were performed on hot-plate at 37° C. […] After mixing, the radioactivity was counted in a liquid scintillation counter (PerkinElmer). The radioactivity in COST cells not transfected with URAT1 expression vector was also counted under the same condition as control. […] Percent inhibition (%)=[1−(B−C)/(A−C)]×100 A: Radioactivity in control B: Radioactivity in the case of addition of test compounds C: Radioactivity in COST cells not transfected with URAT1 expression vector

serum uric acid = test: Serum hypouricemic effect; type: in vivo; details: 1 mg/kg oral, male CD (SD) IGS rats, 2 hours after administration
Experimental: (1) Method for Measurement
Test compounds at 1 mg/kg suspended in 0.5% methylcellulose solution were administered orally to overnight fasted male CD (SD) IGS rats (5-week-old, Charls River Japan). At 2 hours after administration, blood was collected under ether anesthesia from abdominal aorta, and serum was separated according to general method. Serum uric acid values were determined by use of uric acid measurement kit (Uric acid C-Test Wako: Wako), and percent decrease in uric acid was calculated according to the formula described below. Percent decrease in uric acid (%)=(Serum uric acid values in control animals−Serum uric acid values in animals administered test compounds)×100/Serum uric acid values in control animals (2) Results

Sequence of Xanthine oxidase (from bovine milk, Sigma) (P80457 whole entry): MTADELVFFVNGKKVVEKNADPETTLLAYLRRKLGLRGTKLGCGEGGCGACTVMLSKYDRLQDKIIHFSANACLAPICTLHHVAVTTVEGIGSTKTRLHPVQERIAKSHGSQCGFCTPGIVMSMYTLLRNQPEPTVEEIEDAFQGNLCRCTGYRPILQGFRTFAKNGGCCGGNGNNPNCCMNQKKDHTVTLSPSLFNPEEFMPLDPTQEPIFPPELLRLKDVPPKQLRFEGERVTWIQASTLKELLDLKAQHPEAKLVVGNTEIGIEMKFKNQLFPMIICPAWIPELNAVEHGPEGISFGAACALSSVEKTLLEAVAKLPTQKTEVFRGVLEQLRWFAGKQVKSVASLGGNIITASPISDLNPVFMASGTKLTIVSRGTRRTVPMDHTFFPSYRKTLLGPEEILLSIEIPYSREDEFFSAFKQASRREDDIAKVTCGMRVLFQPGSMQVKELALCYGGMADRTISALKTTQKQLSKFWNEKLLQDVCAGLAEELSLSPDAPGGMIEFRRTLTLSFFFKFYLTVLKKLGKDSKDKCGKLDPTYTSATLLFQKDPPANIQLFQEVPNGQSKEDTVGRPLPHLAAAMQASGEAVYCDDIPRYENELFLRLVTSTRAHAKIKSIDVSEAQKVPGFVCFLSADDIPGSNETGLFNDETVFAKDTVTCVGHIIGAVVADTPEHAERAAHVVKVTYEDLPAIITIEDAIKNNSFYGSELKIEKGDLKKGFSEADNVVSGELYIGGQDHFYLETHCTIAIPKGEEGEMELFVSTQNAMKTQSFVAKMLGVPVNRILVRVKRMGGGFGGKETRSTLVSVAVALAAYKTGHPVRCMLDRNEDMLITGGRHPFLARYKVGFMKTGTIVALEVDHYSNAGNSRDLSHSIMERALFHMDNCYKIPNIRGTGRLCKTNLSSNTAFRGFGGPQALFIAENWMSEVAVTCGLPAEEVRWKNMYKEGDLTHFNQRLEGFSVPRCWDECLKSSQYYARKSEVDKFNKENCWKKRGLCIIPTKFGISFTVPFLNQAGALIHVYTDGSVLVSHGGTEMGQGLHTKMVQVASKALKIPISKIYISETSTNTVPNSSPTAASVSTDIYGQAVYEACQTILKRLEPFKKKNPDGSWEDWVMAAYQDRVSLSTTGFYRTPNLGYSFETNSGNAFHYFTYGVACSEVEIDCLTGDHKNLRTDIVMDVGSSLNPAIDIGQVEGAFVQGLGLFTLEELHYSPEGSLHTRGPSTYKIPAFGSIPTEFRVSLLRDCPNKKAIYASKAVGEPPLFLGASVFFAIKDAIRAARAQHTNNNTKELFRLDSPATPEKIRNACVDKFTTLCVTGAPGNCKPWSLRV

| SMILES | IC50 ([1]; 0.02 units/mL, xanthine 200 μM, 10 minutes at room temperature) | inhibition % [2] | inhibition at 100 µM (human URAT1) | IC50 ([1]; 100 μM xanthine final) | Percent decrease in uric acid (hypouricemic effect) (serum uric acid) |
| --- | --- | --- | --- | --- | --- |
| N#Cc1cn(-c2cc(C(=O)O)ccn2)cc1-c1ccccc1 [Example 20, 2-(3-Cyano-4-phenylpyrrole-1-yl)isonicotinic acid] | 52.1 nM | >90% | 77% | – | – |
| N#Cc1cn(-c2ccc(C(=O)O)c(O)c2)cc1-c1ccccc1 [Example 301] | – | – | – | 6.2 nM | over 50% |
| N#Cc1cn(-c2ccc(C(=O)O)c(O)c2)cc1-c1cccs1 [Example 306] | – | >90% | 91% | 7.8 nM | – |
| N#Cc1cn(-c2ccc(C(=O)O)c(O)c2)cc1-c1ccsc1 [Example 314] | – | – | – | 5.2 nM | over 50% |
| CCCCc1cn(-c2ccc(C(=O)O)c(O)c2)cc1C#N [Example 355] | – | >90% | 89% | 3.3 nM | – |
